Data published in ChEMBL document CHEMBL3885881, “DrugMatrix”.

Species: Rattus norvegicus
Experiment: DrugMatrix - Regimen: Daily Repeat
Assay type: toxicity, organism-based, Sprague-Dawley
Set-up: regimen Daily Repeat, gender Male, age 6-8 weeks
Details: in vivo, po, route oral GAVAGE, vehicle .5 % CMC; for BASOPHIL / EOSINOPHIL / ERYTHROCYTE COUNT / HEMATOCRIT / HEMOGLOBIN / LYMPHOCYTE / MEAN CORPUSCULAR HEMOGLOBIN / MEAN CORPUSCULAR HEMOGLOBIN CONCENTRATION / MEAN CORPUSCULAR VOLUME / MONOCYTE / NEUTROPHIL / PLATELET COUNT: tissue Blood; for ALANINE AMINOTRANSFERASE / ALBUMIN / ALKALINE PHOSPHATASE / ASPARTATE AMINOTRANSFERASE / BLOOD UREA NITROGEN / CHLORIDE / CHOLESTEROL / CREATINE PHOSPHOKINASE / CREATININE / GLUCOSE / PHOSPHORUS / POTASSIUM / SODIUM / TOTAL BILIRUBIN / TOTAL PROTEIN: tissue Plasma
[1] = 0 mg/kg, 72 h, dose level Control, time 3 day
[2] = 0 mg/kg, 120 h, dose level Control, time 5 day
[3] = 10 mg/kg, 72 h, dose level Low, time 3 day

## OCCN(CCO)c1nc(N2CCCCC2)c2nc(N(CCO)CCO)nc(N3CCCCC3)c2n1 [DIPYRIDAMOLE]
[1]
  BASOPHIL: 0%
  EOSINOPHIL: 0%
  ERYTHROCYTE COUNT: 6.34 x10E6/uL
  HEMATOCRIT: 37.62%
  HEMOGLOBIN: 14.82 G/DL
  LYMPHOCYTE: 87.5%
  MEAN CORPUSCULAR HEMOGLOBIN: 23.48 pg
  MEAN CORPUSCULAR HEMOGLOBIN CONCENTRATION: 39.5 G/DL
  MEAN CORPUSCULAR VOLUME: 59.45 fL
  MONOCYTE: 1.67%
  NEUTROPHIL: 10.83%
  PLATELET COUNT: 1074.83 x10E3/uL
  ALANINE AMINOTRANSFERASE: 36.5 u/L
  ALBUMIN: 3.9 G/DL
  ALKALINE PHOSPHATASE: 370.17 u/L
  ASPARTATE AMINOTRANSFERASE: 63.17 u/L
  BLOOD UREA NITROGEN: 16.83 mg/dL
  CHLORIDE: 99.33 MEQ/L
  CHOLESTEROL: 64.33 mg/dL
  CREATINE PHOSPHOKINASE: 127 u/L
  CREATININE: 0.55 mg/dL
  GLUCOSE: 173.5 mg/dL
  PHOSPHORUS: 10.08 mg/dL
  POTASSIUM: 6.23 MEQ/L
  SODIUM: 143.5 MEQ/L
  TOTAL BILIRUBIN: 0.52 mg/dL
  TOTAL PROTEIN: 6.35 G/DL
[2]
  BASOPHIL: 0%
  EOSINOPHIL: 0.17%
  ERYTHROCYTE COUNT: 6.12 x10E6/uL
  HEMATOCRIT: 37.08%
  HEMOGLOBIN: 14.82 G/DL
  LYMPHOCYTE: 83.33%
  MEAN CORPUSCULAR HEMOGLOBIN: 24.25 pg
  MEAN CORPUSCULAR HEMOGLOBIN CONCENTRATION: 39.97 G/DL
  MEAN CORPUSCULAR VOLUME: 60.65 fL
  MONOCYTE: 1.5%
  NEUTROPHIL: 15%
  PLATELET COUNT: 1042.83 x10E3/uL
  ALANINE AMINOTRANSFERASE: 46 u/L
  ALBUMIN: 3.82 G/DL
  ALKALINE PHOSPHATASE: 369.5 u/L
  ASPARTATE AMINOTRANSFERASE: 65 u/L
  BLOOD UREA NITROGEN: 16.33 mg/dL
  CHLORIDE: 100.67 MEQ/L
  CHOLESTEROL: 57.17 mg/dL
  CREATINE PHOSPHOKINASE: 130 u/L
  CREATININE: 0.53 mg/dL
  GLUCOSE: 163.33 mg/dL
  PHOSPHORUS: 9.53 mg/dL
  POTASSIUM: 6.27 MEQ/L
  SODIUM: 144.83 MEQ/L
  TOTAL BILIRUBIN: 0.55 mg/dL
  TOTAL PROTEIN: 6.32 G/DL
[3]
  BASOPHIL: 0%
  EOSINOPHIL: 0.33%
  ERYTHROCYTE COUNT: 6.75 x10E6/uL
  HEMATOCRIT: 39.77%
  HEMOGLOBIN: 15.7 G/DL
  LYMPHOCYTE: 90.67%
  MEAN CORPUSCULAR HEMOGLOBIN: 23.23 pg
  MEAN CORPUSCULAR HEMOGLOBIN CONCENTRATION: 39.53 G/DL
  MEAN CORPUSCULAR VOLUME: 58.8 fL
  MONOCYTE: 0.33%
  NEUTROPHIL: 8.67%
  PLATELET COUNT: 1406 x10E3/uL
  ALANINE AMINOTRANSFERASE: 42.67 u/L
  ALBUMIN: 4.03 G/DL
  ALKALINE PHOSPHATASE: 406.33 u/L
  ASPARTATE AMINOTRANSFERASE: 71.33 u/L
  BLOOD UREA NITROGEN: 15.67 mg/dL
  CHLORIDE: 100.33 MEQ/L
  CHOLESTEROL: 71 mg/dL
  CREATINE PHOSPHOKINASE: 229.67 u/L
  CREATININE: 0.53 mg/dL
  GLUCOSE: 148.67 mg/dL
  PHOSPHORUS: 11.33 mg/dL
  POTASSIUM: 6.33 MEQ/L
  SODIUM: 144.33 MEQ/L
  TOTAL BILIRUBIN: 0.27 mg/dL
  TOTAL PROTEIN: 6.57 G/DL
